Activity calls are given as the source filed them. The calls are words filed in the database; no cut-off is given here. Where only a bound is given, the exact number is not on record here.

Data set [1] relates to L929. Briefly: Potentiation of recombinant human TNF-alpha-induced cytotoxicity of mouse L929 cells assessed as survivality preincubated for 15 mins before TNFalpha addition measured after 24 hrs by crystal violet staining. Type of data set: functional, cell-based.
Data set [2] concerns L929. Nature of the data set: Potentiation of recombinant human TNF-alpha-induced cytotoxicity of mouse L929 cells assessed as survivality preincubated for 15 mins before TNFalpha addition measured after 24 hrs by [methyl-3H]thymidine incorporation assay. It counts as functional, cell-based.
The subject of data set [3] is L929. Nature of the data set: Inhibition of recombinant human TNF-alpha-induced cytotoxicity of mouse L929 cells assessed as survivality preincubated for 15 mins before TNFalpha addition measured after 24 hrs by [methyl-3H]thymidine incorporation assay. Type of data set: functional, cell-based.
The test system of data set [4] is L929. Briefly: Inhibition of recombinant human TNF-alpha-induced cytotoxicity of mouse L929 cells assessed as survivality preincubated for 15 mins before TNFalpha addition measured after 24 hrs by crystal violet staining. Type of data set: functional, cell-based.
Data set [5] concerns L929. Briefly: Inhibition of recombinant human TNF-alpha-induced cytotoxicity of mouse L929 cells assessed as survivality treated with drug after 2 hrs of TNFalpha treatment. It counts as functional, cell-based.
For data set [6], the system named is L929. Briefly: Potentiation of recombinant human TNF-alpha-induced cytotoxicity of mouse L929 cells assessed as survivality treated with drug after 2 hrs of TNFalpha treatment. Type of data set: functional, cell-based.
Data set [7] concerns L929. Briefly: Potentiation of recombinant human TNF-alpha-induced cytotoxicity of mouse L929 cells assessed as survivality at 250 uM preincubated for 15 mins before TNFalpha addition measured after 24 hrs by [methyl-3H]thymidine incorporation assay. It counts as functional. (In general: Dividing cells build labelled thymidine or BrdU into new DNA.)
Data set [8] has as its system L929. Nature of the data set: Potentiation of recombinant human TNF-alpha-induced cytotoxicity of mouse L929 cells assessed as survivality at 250 uM preincubated for 15 mins before TNFalpha addition measured after 24 hrs by crystal violet staining. Type of data set: functional.
The subject of data set [9] is L929. Briefly: Cytotoxicity against mouse L929 cells at 1 uM preincubated for 15 mins before TNFalpha addition measured after 24 hrs by crystal violet staining. Type of data set: cell-based. The note with it: l929, 24 h.
In data set [10] the test system is L929. Briefly: Cytotoxicity against mouse L929 cells at 1 uM preincubated for 15 mins before TNFalpha addition measured after 24 hrs by [methyl-3H]thymidine incorporation assay. The note with it: l929, 24 h. Type of data set: cell-based.

As for `O=c1cc(-c2ccc(O)cc2)oc2cc(O)cc(O)c12`, the outcome in the data set on L929 [1] and in the data set with L929 [2] was Active.

Take `O=c1cc(-c2ccccc2)oc2cc(O)cc(O)c12`: the outcome in the data set on L929 [1] and in the data set with L929 [2] was Active.

On to `O=C1c2c(O)cc(O)cc2O[C@H](c2ccc(O)c(O)c2)[C@H]1O` [(+)-TAXIFOLIN], for which the EC50 with L929 [3] was found to be 240 µM; in the data set with L929 [4] it was 200 µM.

`Oc1cc(O)c2c(c1)O[C@H](c1ccc(O)c(O)c1)[C@H](O)C2` [(-)-EPICATECHIN]: the EC50 in the data set on L929 [3] is 350 µM; in the data set on L929 [4], 300 µM.

Turning to `O=C1C[C@@H](c2ccc(O)c(O)c2)Oc2cc(O)cc(O)c21` [ERIODICTYOL], the EC50 in the data set on L929 [3] was determined as 6 µM; in the data set with L929 [4] it was 4 µM.

As for `O=c1c(O)c(-c2ccccc2)oc2cc(O)cc(O)c12` [GALANGIN], the result in the data set with L929 [5] and with L929 [6] was Active. Also, the EC50 in the data set with L929 [3] was 50 µM; with L929 [4] it was 40 µM. Besides, the Activity result in the data set with L929 [4] is “Dose-dependent effect”.

Turning to `COc1ccc(-c2oc3cc(O)cc(O)c3c(=O)c2O)cc1` [KAEMPFERIDE], the outcome in the data set with L929 [5] and in the data set on L929 [6] was Active. For the same molecule, the EC50 in the data set with L929 [3] came out at 140 µM; with L929 [4], 129 µM. For the same molecule, in the data set with L929 [4], the Activity entry is “Dose-dependent effect”.

Regarding `O=c1c(O)c(-c2ccc(O)cc2)oc2cc(O)cc(O)c12` [KAEMPFEROL], the outcome in the data set on L929 [5] and in the data set on L929 [6] was Active. In addition, the figures for the EC50 with L929 [3] and in the data set on L929 [4] were 25 µM and 20 µM, respectively. Besides, in the data set on L929 [4], the Activity entry is “Dose-dependent effect”.

`O=c1cc(-c2ccc(O)c(O)c2)oc2cc(O)cc(O)c12` [LUTEOLIN]: the EC50 in the data set on L929 [3] and in the data set on L929 [4] was greater than 250 µM throughout.

For `O=c1c(O)c(-c2ccc(O)cc2O)oc2cc(O)cc(O)c12` [MORIN], the outcome in the data set with L929 [5] and with L929 [6] was Active. Moreover, the EC50 in the data set with L929 [3] stood at 115 µM; with L929 [4] it was 120 µM. Further, the Activity entry with L929 [4] was “Dose-dependent effect”.

As for `O=c1c(O)c(-c2cc(O)c(O)c(O)c2)oc2cc(O)cc(O)c12` [MYRICETIN], the outcome in the data set with L929 [5] and in the data set with L929 [6] was Active. For the same molecule, the EC50 came out at 59 µM in the data set with L929 [3] and 55 µM with L929 [4]. The Activity entry in the data set on L929 [4] was “Dose-dependent effect”.

As for `O=C1C[C@@H](c2ccc(O)cc2)Oc2cc(O)cc(O)c21` [NARINGENIN], the outcome in the data set on L929 [1] and with L929 [2] was Active. Besides, the values for the Activity in the data set on L929 [7] and in the data set on L929 [8] were 31% and 25%, respectively.

Take `CC(Cc1ccc(O)c(O)c1)C(C)Cc1ccc(O)c(O)c1` (configuration not stated) [NORDIHYDROGUAIARETIC ACID]: the EC50 in the data set on L929 [3] stood at 19 µM; with L929 [4], 28 µM.

`O=c1c(O)c(-c2ccc(O)c(O)c2)oc2cc(O)cc(O)c12` [QUERCETIN]: the outcome in the data set on L929 [5] and with L929 [6] was Active. Further, the EC50 in the data set on L929 [3] turned out to be 26 µM; in the data set on L929 [4] it was 20 µM. Also, the Activity entry in the data set on L929 [4] is “Dose-dependent effect”.

For the molecule `C[C@@H]1O[C@@H](OC[C@H]2O[C@@H](Oc3c(-c4ccc(O)c(O)c4)oc4cc(O)cc(O)c4c3=O)[C@H](O)[C@@H](O)[C@@H]2O)[C@H](O)[C@H](O)[C@H]1O` [RUTIN], the outcome with L929 [5] and with L929 [6] was Active. For the same molecule, the EC50 is greater than 250 µM in the data set with L929 [3] and 250 µM with L929 [4]. The Activity result with L929 [4] was “Dose-dependent effect”.

In the case of `CN[C@@H]1C[C@H]2O[C@@](C)([C@@H]1OC)n1c3ccccc3c3c4c(c5c6ccccc6n2c5c31)C(=O)NC4` [STAUROSPORINE], the Activity result was “Dose-dependent effect” in the data set with L929 [1], “Toxic” in the data set on L929 [9], “Dose-dependent effect” in the data set with L929 [2] and “Toxic” in the data set on L929 [10].

By EC50 is commonly meant the concentration giving half of the maximal effect.

The values above are taken from ChEMBL document CHEMBL1145705, “Flavonoids as inhibitors or enhancers of the cytotoxicity of tumor necrosis factor-alpha in L-929 tumor cells” (J Nat Prod, 1997).
